What all share (assay): NCI tumour cell line growth inhibition, 48 h
For test [1], the system named is COLO 205.
The test system of test [2] is CCRF-CEM.
The subject of test [3] is A549.
In test [4] the test system is MDA-N.
In test [5] the test system is NCI-H460.
Test [6] has as its system EKVX.
The test system of test [7] is IGROV-1.
The subject of test [8] is U-251.
Test [9] concerns OVCAR-3.
Test [10] has as its system HCT-116.
The test system of test [11] is NCI/ADR-RES.
Test [12] concerns Malme-3M.
Test [13] concerns SK-MEL-28.
The test system of test [14] is SW-620.
The test system of test [15] is UO-31.
In test [16] the test system is M14.
The test system of test [17] is PC-3.
Test [18] relates to OVCAR-5.
The subject of test [19] is HCT-15.
Test [20] deals with MOLT-4.

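Five concentrations, 48 hours, 96-well plates. At the GI50, growth is halved.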 Active and inactive are the calls of the source. No stated cut-off is given here; in the data, active = GI50 up to about 1.1 µM and inactive = higher.

The values that follow come from ChEMBL document CHEMBL1201862, “PubChem BioAssay data set” (2004).

For `S=C1NCN2CCN(CC2)CNC(=S)C(=S)NCN2CCN(CC2)CNC1=S`, the GI50 was 35.6 µM (inactive) in test [1]; 18.5 µM (inactive) in test [2]; 36.8 µM (inactive) in test [3]; 67.8 µM (inactive) in test [4]; 20.7 µM (inactive) in test [5]; 40.9 µM (inactive) in test [6]. The GI50 in [7] is 64.3 µM (inactive); in [8], 37.7 µM (inactive); in [9], 22 µM (inactive); in test [10], 79.4 µM (inactive); in [11] it was 67.5 µM (inactive); in [12] it was > 100 µM (inactive). Also, the GI50 in test [13] was > 100 µM (inactive); in test [14] it was 30.4 µM (inactive); in [15], 25.6 µM (inactive); in test [16], 30.1 µM (inactive); in [17], 35.2 µM (inactive); in [18], > 100 µM (inactive). The same compound showed a GI50 in test [19] of 31.3 µM.
Turning to `O=C1C(F)=CC(COC(c2ccccc2)(c2ccccc2)c2ccccc2)OC1n1cc(F)c(=O)[nH]c1=O` (centres undefined), the GI50 in test [2] is 0.319 µM (active); in test [3], 2.18 µM (inactive); in [4] it was 1.11 µM (active); in test [5], 2.62 µM (inactive); in [6] it was 7.89 µM (inactive); in [7], 1.46 µM (inactive). Also, the GI50 in test [8] was 1.36 µM (inactive); in [9], 1.48 µM (inactive); in test [10], 2.77 µM (inactive); in test [11] it was 2.04 µM (inactive); in [12], 3.33 µM (inactive); in test [13], 1.62 µM (inactive). For the same compound, the GI50 in test [20] is 0.8 µM (active); in test [14], 0.723 µM (active); in test [15], 2.2 µM (inactive); in test [16] it was 1.83 µM (inactive); in test [17], 1.71 µM (inactive); in test [18], 2.14 µM (inactive). The compound also gave a GI50 in test [19] of 1.67 µM.
As to `O=C(/C=C/c1ccsc1)c1ccc(Cl)cc1`, the GI50 in test [1] was > 100 µM (inactive); in test [2] it was 21.9 µM (inactive); in [3], > 100 µM (inactive); in [4], 59 µM (inactive); in test [5] it was > 100 µM (inactive); in test [6], 97.7 µM (inactive). For the same compound, the GI50 in test [7] was > 100 µM (inactive); in test [8], 66.4 µM (inactive); in [10] it was 23.7 µM (inactive); in [11] it was 78.3 µM (inactive); in test [12] it was 33.1 µM (inactive); in [13], > 100 µM (inactive). For the same compound, the GI50 in test [20] was 19.2 µM (inactive); in [14], 33.6 µM (inactive); in [15] it was 31.1 µM (inactive); in test [16], 80.7 µM (inactive); in test [17], 70.8 µM (inactive); in test [18], 56.1 µM (inactive). In test [19], this compound had a GI50 of 39.7 µM.
Take `Cc1cc(C)c(C2=NOC(c3ccccc3)(c3cc(=O)n(-c4ccccc4)s3)O2)c(C)c1` (centres undefined): the GI50 in test [1] was 23.6 µM (inactive); in [2] it was 23.8 µM (inactive); in test [3], 29.5 µM (inactive); in test [4], 38.8 µM (inactive); in test [5], 43.1 µM (inactive); in [6], 21.9 µM (inactive). For the same compound, the GI50 in test [7] was 37.1 µM (inactive); in test [8], 24.7 µM (inactive); in test [10] it was > 100 µM (inactive); in test [11] it was 23.3 µM (inactive); in [12] it was 18.8 µM (inactive); in test [13], 32 µM (inactive). Also, the GI50 was 41.9 µM (inactive) in [20]; 26.4 µM (inactive) in [14]; 20.8 µM (inactive) in [15]; 27 µM (inactive) in [16]; 30.9 µM (inactive) in test [17]; 18 µM (inactive) in [18]. In addition, the GI50 in [19] is 19.3 µM.
As to `COc1cccc(N2C(=O)C3CC(CC(C)(C)C)c4c([nH]c5ccccc45)C3C2=O)c1` (centres undefined), the GI50 in [1] was > 10 µM (inactive); in [2], > 10 µM (inactive); in test [3], > 10 µM (inactive); in test [4], > 10 µM (inactive); in [5] it was 6.47 µM (inactive); in [6], > 10 µM (inactive). In addition, the GI50 was > 10 µM (inactive) in [7]; 7.91 µM (inactive) in test [8]; > 10 µM (inactive) in test [9]; 4.93 µM (inactive) in test [10]; > 10 µM (inactive) in [11]; 5.9 µM (inactive) in test [12]. For the same compound, the GI50 in test [13] is > 10 µM (inactive); in [20] it was > 10 µM (inactive); in test [14] it was > 10 µM (inactive); in [16] it was 5.82 µM (inactive); in [17] it was > 10 µM (inactive); in test [18], > 10 µM (inactive). Besides, in test [19], the GI50 was above 10 µM.
As to `Cc1ccc(-n2cc(-c3ccc(Cl)cc3)c(C#N)c2N)cc1`, the GI50 in test [1] was 14.1 µM (inactive); in test [2], 15.5 µM (inactive); in test [3] it was 17.4 µM (inactive); in test [4], 18.5 µM (inactive); in test [5] it was 15.1 µM (inactive); in [6], 15.2 µM (inactive). The GI50 in test [7] is 15.9 µM (inactive); in test [8] it was 14.2 µM (inactive); in test [9], 15.6 µM (inactive); in test [10], 14 µM (inactive); in test [11], 17.3 µM (inactive); in test [12], 18 µM (inactive). Moreover, the GI50 in test [13] was 18.1 µM (inactive); in test [14], 13.2 µM (inactive); in test [15] it was 13.2 µM (inactive); in test [16], 15.3 µM (inactive); in test [17], 12.6 µM (inactive); in [18], 15.1 µM (inactive). The GI50 in test [19] is 12.1 µM.
Take `CCOC(=O)C(NC(=O)CC(C)C)(Nc1ccc(C(F)(F)F)cc1)C(F)(F)F` (centres undefined): the GI50 was 35.6 µM (inactive) in test [2]; > 100 µM (inactive) in test [3]; 32.6 µM (inactive) in test [4]; 26.4 µM (inactive) in test [5]; > 100 µM (inactive) in [6]; 22.2 µM (inactive) in test [7]. For the same compound, the GI50 was 28 µM (inactive) in test [8]; 13.4 µM (inactive) in [9]; 17.2 µM (inactive) in test [10]; 22.6 µM (inactive) in test [11]; 96.4 µM (inactive) in [12]; > 100 µM (inactive) in [13]. Also, the GI50 in [20] is 23 µM (inactive); in test [14], 57.8 µM (inactive); in test [15] it was 61.7 µM (inactive); in test [16], > 100 µM (inactive); in test [17], 20 µM (inactive); in [18], > 100 µM (inactive). Moreover, the GI50 in test [19] is 29 µM.
`Nc1sccc1S(=O)(=O)c1ccsc1N`: the GI50 in test [1], in test [3], in [4], in [5], in test [6] and in test [7] was > 100 µM (inactive) in each case. Also, the GI50 in [8], in test [9], in [10], in test [11], in test [12] and in test [13] was > 100 µM (inactive) throughout. Besides, the GI50 in [20], in test [14], in test [15], in test [16], in test [17] and in test [18] was > 100 µM (inactive) throughout. Also, the GI50 in test [19] is above 100 µM.
With `CC1(C)C(/C=N\O)=[N+]([O-])C(C)(C)N1O`, the GI50 in test [1] was > 100 µM (inactive); in [2] it was 89.7 µM (inactive); in test [3], > 100 µM (inactive); in test [4], 52.7 µM (inactive); in [5], > 100 µM (inactive); in test [6] it was > 100 µM (inactive). The GI50 in test [7] is > 100 µM (inactive); in [8], > 100 µM (inactive); in test [9] it was 49.7 µM (inactive); in test [10], > 100 µM (inactive); in test [11] it was > 100 µM (inactive); in test [12], > 100 µM (inactive). In addition, the GI50 in test [13], in test [14], in test [15], in test [16], in test [17] and in [18] was > 100 µM (inactive) each time. The same compound yielded a GI50 in test [19] above 100 µM.
As for `O=C1C=C(c2ccccc2)O/C1=C/C(=O)c1ccc(Cl)cc1`, the GI50 in [1] is 16.1 µM (inactive); in [2] it was 3.35 µM (inactive); in test [4], 16.1 µM (inactive); in test [5], 20.2 µM (inactive); in test [6], 90.4 µM (inactive); in test [7], 18.3 µM (inactive). Also, the GI50 in [8] is 15.7 µM (inactive); in test [9], 17.5 µM (inactive); in test [10] it was 16.4 µM (inactive); in test [11], 22.1 µM (inactive); in [12], 17.2 µM (inactive); in [13], 18 µM (inactive). Moreover, the GI50 in [20] was 2.85 µM (inactive); in test [14] it was 11.7 µM (inactive); in test [15], 23.3 µM (inactive); in test [16], 19 µM (inactive); in test [17], 14.2 µM (inactive); in test [18], 17.6 µM (inactive). Besides, the GI50 in [19] was 22 µM.
With `N#Cc1c(N2CCC(O)C2)c2ccccc2n2c1nc1ccccc12` (centres undefined), the GI50 in test [1], in test [2], in test [3], in test [4], in [5] and in test [6] was > 100 µM (inactive) each time. For the same compound, the GI50 in [7] was 69.2 µM (inactive); in test [9] it was > 100 µM (inactive); in [10] it was > 100 µM (inactive); in test [11], 65.3 µM (inactive); in test [12], 40.4 µM (inactive); in test [13] it was > 100 µM (inactive). Besides, the GI50 in [20], in test [14], in [15], in test [16], in [17] and in test [18] was > 100 µM (inactive) in each case. For the same compound, in test [19], the GI50 was above 100 µM.
